Measurements from patent US20200230118A1, “USE OF BERBERINE OR ACTIVE METABOLITE THEREOF IN PREPARATION OF DRUG FOR PREVENTING AND/OR TREATING PHENYLKETONURIA” (Institute of Materia Medica, Chinese Academy of Medical …, priority 2017, published 2020).

Key:
ICR mice [1] = test: Effect of dihydroberberine on blood phenylpyruvate and tyrosine in ICR mice; assay type: in vivo
Description: The concentrations of phenylpyruvate and tyrosine in blood are the key indicators to evaluate the therapeutic effect for phenylketonuria.
ICR mice (male, 20±2 g) were purchased from Beijing Vital River Laboratory Animal Technology Co., Ltd. All the animals were fed in SPF environment (21±2° C., 12-hour photoperiod) and had free access to food and water during the experiment. Berberine was purchased from the J&K Technology Co. LTD (Beijing, China). Dihydroberberine was purchased from the Mansite Biology & Technology Co. LTD (Chengdu, China). Phenylpyruvate, phenylalanine, and tyrosine were purchased from Solarbio Science&Technology Co. LTD (Beijing, China).
Experimental design: The animals were divided into three groups, including the control group, the 200 mg/kg dihydroberberine oral treated group at 12 h, the 200 mg/kg dihydroberberine oral treated group at 24 h.
(§1) (1) The control group: saline 0.2 mL (oral);
(2) The 100 mg/kg dihydroberberine singe oral treated group at 12 h: 100 mg/kg […] (oral);
(3) The 100 mg/kg dihydroberberine singe oral treated group at 24 h: 100 mg/kg […] (oral).

[2] = system: α-methylphenylalanine induced phenylketonuria model of suckling rats; test: Therapeutic effect in α-methylphenylalanine induced phenylketonuria model of suckling rats; assay type: in vivo, SD suckling rats
Description: The phenylpyruvate concentration and ratio of phenylalanine/tyrosine in blood are the key indicators for evaluating the therapeutic effect in phenylketonuria model of suckling rats.
SD suckling rats (1 day old) were purchased from Beijing Vital River Laboratory Animal Technology Co., Ltd. All the animals and female rats were fed in SPF environment (21±2° C., 12-hour photoperiod) and had free access to food and water during the experiment. Berberine was purchased from the J&K Technology Co. LTD (Beijing, China). Phenylpyruvate, phenylalanine, and tyrosine were purchased from Solarbio Science&Technology Co. LTD (Beijing, China). α-Methylphenylalanine was purchased from Sinuokai Technology Co. LTD (Nanjing, China).
High-performance liquid chromatography-triple quadrupole tandem mass spectrometry (LC-MS/MS 8050, Shimadzu Corporation, Japan) was used to quantitatively determine the concentration of dopa, phenylalanine, tyrosine, and phenylpyruvate. Alltima C18 (5 μm, 4.6×150 mm) chromatography column was used in the experiment, and the column temperature was maintained at 40° C. The mobile phase to measure L-dopa was water-formic acid (100: 0.2 v/v) and acetonitrile. The condition of gradient elution was as follows (A: B, 0 min, 90:10; 2.5 min, 80:20; 2.51 min, 5:95; 5 min, 5:95; 5.01 min, 90:10; 8 min 90:10). The flow rate was 0.8 mL/min. Multi-reaction monitoring mode was used for quantization, and the quantitative ion pair of dopa was 198.15→[…] (m/z). Phenylalanine, tyrosine, and phenylpyruvate level were determined using Alltima C18 (5 μm, 4.6×150 mm) chromatography column at column temperature of 40° C. The mobile phase contained water-formic acid (100:0.1 v/v) and methanol. The condition of gradient elution was as follows (A: B, 0 min, 90:10; 1 min, 90:10; 1.01 min, 60:40; 5 min, 5:95; 7 min, 5:95; 7.01 min 90:10; 10 min 90:10). The flow rate was 0.8 mL/min. Multi-reaction monitoring mode was used for quantization. The quantitative ion pair was: phenylalanine, 165.85→120.20; tyrosine, 182.00→136.10; phenylpyruvate, 163.00→91.00.
Experimental design: The animals were divided into 6 groups, including: the normal control group, the model group, the low-dose of oral berberine treated model group, the high-dose of oral berberine treated model group, the intraperitoneal berberine treated model group, and the oral berberine treated pseudo-germ-free model group. The establishment of model started at 2 days old of SD suckling rats, which were administrated for 10 days, and then they were treated for 7 days.
(1) Normal control group: normal saline (s.c.).
(2) Model group: a-methylphenylalanine (s.c. 50 mg/kg/d), and phenylalanine (s.c. 200 mg/kg/d);
(3) Low-dose of oral berberine treated model group: α-methylphenylalanine (s.c. 50 mg/kg/d), phenylalanine (s.c. 200 mg/kg/d), berberine (oral, 100 mg/kg/d);
(4) High-dose of oral berberine treated model group: α-methylphenylalanine (s.c. 50 mg/kg/d), phenylalanine (s.c. 200 mg/kg/d), berberine (oral, 200 mg/kg/d);
(5) Intraperitoneal berberine treated model group: α-methylphenylalanine (s.c. 50 mg/kg/d), phenylalanine (s.c. 200 mg/kg/d), berberine (i.p. 20 mg/kg/d);
(6) Oral berberine treated pseudo-germ-free model group: α-methylphenylalanine (s.c. 50 mg/kg/d), phenylalanine (s.c. 200 mg/kg/d), berberine (oral, 200 mg/kg/d); Antibiotic dose: cefadroxil (100 mg/kg/d), oxytetracycline (300 mg/kg/d), erythromycin (300 mg/kg/d).

ICR mice [3] = test: Effect of jatrorrhizine on blood phenylpyruvate and tyrosine in ICR mice; assay type: in vivo
Description: The concentrations of phenylpyruvate and tyrosine in blood are the key indicators to evaluate the therapeutic effect for phenylketonuria in children.
ICR mice (male, 20±2 g) were purchased from Beijing Vital River Laboratory Animal Technology Co., Ltd. All the animals were fed in SPF environment (21±2° C., 12-hour photoperiod) and had free access to food and water during the experiment. Berberine was purchased from the J&K Technology Co. LTD (Beijing, China). Phenylpyruvate, phenylalanine, and tyrosine were purchased from Solarbio Science&Technology Co. LTD (Beijing, China).
Experimental design: The animals were divided into three groups, including the control group, the 200 mg/kg jatrorrhizine oral treated group at 12 h, the 200 mg/kg jatrorrhizine oral treated group at 24 h.
as §1
(2) The 200 mg/kg jatrorrhizine singe oral treated group at 12 h: 200 mg/kg jatrorrhizine (oral);
(3) The 200 mg/kg jatrorrhizine single oral treated group at 24 h: 200 mg/kg jatrorrhizine (oral).

COc1ccc2c(c1OC)CN1CCc3cc4c(cc3C1=C2)OCO4 [dihydroberberine]
Ratio of phenylalanine/tyrosine in blood (ICR mice [1]; oral administration): reduce
Tyrosine level in blood (ICR mice [1]; single oral 100 mg/kg (200 mg/kg), 12 h and 24 h, vs control (FIG. 7)): significantly increased
Phenylpyruvate level in blood (ICR mice [1]; single oral 100 mg/kg (200 mg/kg), 12 h and 24 h, vs control (FIG. 8)): significantly decreased

COc1ccc2cc3[n+](cc2c1OC)CCc1cc2c(cc1-3)OCO2 [berberine]
Phenylalanine/tyrosine ratio in blood ([2]; intraperitoneal injection 20 mg/kg/d (FIG. 2)): not significantly changed
Concentration of dopa in brain ([2]; intraperitoneal injection 20 mg/kg/d (FIG. 3)): not significantly changed
Concentration of dopamine in brain ([2]; intraperitoneal injection 20 mg/kg/d (FIG. 4)): not significantly changed
Phenylpyruvate level in blood ([2]; intraperitoneal injection 20 mg/kg/d, 7 days (FIG. 1)): not significantly changed
Phenylpyruvate level in blood ([2]; oral 100 and 200 mg/kg/d for 7 days, vs model group, dose-dependent (FIG. 1)): significantly decreased
Phenylalanine/tyrosine ratio in blood ([2]; oral 100 and 200 mg/kg/d, vs model group, dose-dependent (FIG. 2)): significantly decreased
Concentration of dopa in brain ([2]; oral 100 and 200 mg/kg/d, vs model group, dose-dependent (FIG. 3)): significantly increased
Concentration of dopamine in brain ([2]; oral 100 and 200 mg/kg/d, vs model group, dose-dependent (FIG. 4)): significantly increased
Level of tyrosine in blood ([2]; oral administration): increase
Phenylpyruvate level in blood ([2]; pseudo-germ-free (antibiotic treated) model, oral 200 mg/kg/d (FIG. 1)): not significantly changed
Phenylalanine/tyrosine ratio in blood ([2]; pseudo-germ-free model, oral 200 mg/kg/d (FIG. 2)): not significantly changed
Concentration of dopa in brain ([2]; pseudo-germ-free model, oral 200 mg/kg/d (FIG. 3)): not significantly changed
Concentration of dopamine in brain ([2]; pseudo-germ-free model, oral 200 mg/kg/d (FIG. 4)): not significantly changed

COc1cc2c(cc1O)CC[n+]1cc3c(OC)c(OC)ccc3cc1-2 [jatrorrhizine]
Ratio of phenylalanine/tyrosine in blood (ICR mice [3]; oral administration): reduce
Tyrosine level in blood (ICR mice [3]; single oral 200 mg/kg, 12 h and 24 h, vs control (FIG. 5)): significantly increased
Phenylpyruvate level in blood (ICR mice [3]; single oral 200 mg/kg, 12 h and 24 h, vs control (FIG. 6)): significantly decreased
